For ten compounds, GI50 and TGI results are on record in PubChem BioAssay (NCI).

Common to all, as to assay: inhibition of tumour cell growth, NCI panel, 48 h
Experiment [1] deals with HOP-92 NSCLC.
Experiment [2] deals with UO-31 renal.
Experiment [3] deals with TK-10 renal.
Experiment [4] relates to MOLT-4 leukemia.
Experiment [5] has as its system HCT-116 colon.
The test system of experiment [6] is SF-268 CNS.
In experiment [7] the test system is SNB-75 CNS.
For experiment [8], the system named is SK-OV-3 ovarian.
Experiment [9] has as its system SR leukemia.
The test system of experiment [10] is NCI-H226 lung.

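Tested at 5 concentrations; 48 h exposure; 96-well plates; endpoints linearly interpolated, else capped at highest concentration. GI50 is the concentration that inhibits growth by half. The concentration for full growth arrest is given as TGI.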

For `Cc1ccc(-c2nc(N3CCCNCC3)c3oc(-c4ccc(C)cc4)nc3n2)cc1`, the GI50 is 1.01 µM in experiment [1]; 1.38 µM in [2]; 2.08 µM in experiment [3]; 1.77 µM in experiment [4]; 1.57 µM in experiment [5]; 1.77 µM in experiment [6]. Also, the results for the GI50 in experiment [7], in experiment [8] and in [9] were 1.66 µM, 17.8 µM and 0.213 µM, respectively. Also, the TGI in experiment [1] was 2.3 µM; in experiment [2] it was 2.68 µM; in experiment [3], 3.96 µM; in [4], 3.59 µM; in [5], 2.92 µM; in [6], 3.48 µM. The TGI in [7] was determined as 3.02 µM; in experiment [8], 31.6 µM; in [9] it was 0.575 µM.

Turning to `Cn1cnc([N+](=O)[O-])c1Sc1ncn[nH]1`, the GI50 in [1] is 29.2 µM; in experiment [2], 35.2 µM; in experiment [3], 98.2 µM; in experiment [4], above 100 µM; in [5] it was above 100 µM; in experiment [10] it was above 100 µM. In addition, the GI50 in experiment [6] was above 100 µM; in [7], above 100 µM; in [8], above 100 µM; in experiment [9] it was 35.1 µM. Also, the TGI in [1], in [2], in experiment [3], in experiment [4], in [5] and in [10] was above 100 µM in each case. Moreover, the TGI in experiment [6], in experiment [7], in experiment [8] and in experiment [9] was above 100 µM throughout.

Consider `CCOC(=O)c1c(C)c(C)n2c1NC(=O)C2`, for which the TGI was above 100 µM in experiment [1]; above 100 µM in [2]; above 89.4 µM in experiment [3]; above 100 µM in experiment [4]; above 100 µM in [5]; above 100 µM in experiment [10]. In addition, the TGI is above 100 µM in experiment [6], above 74.7 µM in experiment [7], above 100 µM in experiment [8] and above 100 µM in experiment [9].

Turning to `O=C1c2nc3n(c2C(=O)c2c1nc1n2CCC1)CCC3`, the TGI in [1] is 26.3 µM; in [2] it was 37.4 µM; in experiment [3], above 77.2 µM; in experiment [4], above 67.6 µM; in experiment [5], 9.22 µM; in [10], 19.1 µM. Further, the TGI in [6] was 32 µM; in [7], 28.9 µM; in experiment [8] it was 92.2 µM; in experiment [9] it was above 40.6 µM. For the same compound, the GI50 is 4.29 µM in experiment [5], 7.84 µM in experiment [10] and 3.58 µM in [9].

`O=S(=O)(NCCNc1nccc(-c2c(-c3ccc(F)cc3)nc3sccn23)n1)c1ccccc1`: the GI50 is 1.34 µM in experiment [1]; 1.83 µM in [2]; 9.41 µM in [3]; 4.84 µM in experiment [4]; 2.36 µM in experiment [5]; 7.73 µM in [10]. Moreover, the GI50 in experiment [6] is 6.63 µM; in experiment [7] it was 1.61 µM; in experiment [8] it was 10.8 µM; in [9], 3.46 µM. Besides, the TGI is 8.14 µM in experiment [1]; 39.8 µM in experiment [2]; 73.5 µM in experiment [3]; 57.5 µM in experiment [4]; 14.9 µM in experiment [5]; above 100 µM in [10]. Further, the TGI in [6] is above 100 µM; in experiment [7], 56.2 µM; in [8] it was above 100 µM; in experiment [9], above 100 µM.

`CCN(CC)CCOc1ccc(C(=O)/C=C\c2ccc(Cl)cc2Cl)cc1`: the GI50 in experiment [1] was 3.63 µM; in [2], 4.06 µM; in experiment [3] it was 15.6 µM; in experiment [5] it was 1.56 µM; in experiment [10], 11.3 µM; in experiment [6], 8.41 µM. Moreover, the GI50 in experiment [7] was 2.53 µM; in experiment [8], 11.8 µM; in [9], 1.69 µM. Further, the TGI in [1] amounted to 16.3 µM; in [2], 17.2 µM; in experiment [3], 29.2 µM; in experiment [5], 3.31 µM; in [10] it was 26.6 µM; in experiment [6] it was 23.7 µM. In addition, the results for the TGI in experiment [7], in experiment [8] and in experiment [9] were 12.1 µM, 24.3 µM and 5.34 µM, respectively.

On to `CNC(=O)OCC1C2=C(C(=O)C(C)=C(N)C2=O)N2CC3C(N3C)C12OC` (stereo not drawn), for which the TGI was above 100 µM in experiment [1]; above 100 µM in [3]; 36.9 µM in experiment [4]; 30.4 µM in [5]; above 100 µM in [10]; above 100 µM in [8]. For the same compound, the TGI in experiment [9] was above 100 µM.

On to `O=[N+]([O-])c1ccc(S(=O)(=O)Cc2ccccc2)c2nonc12`, for which the TGI in [1] is 39.7 µM; in experiment [2] it was 45.1 µM; in experiment [3], 32 µM; in experiment [4], 83.8 µM; in experiment [5], 31.8 µM; in [10], above 100 µM. Further, the TGI is 39.3 µM in experiment [6], 98.5 µM in experiment [7], above 100 µM in experiment [8] and above 100 µM in [9].

Regarding `O=C(Nc1ccn(CCI)c(=O)n1)c1ccccc1`, the TGI in experiment [1], in [2], in experiment [3], in experiment [5], in experiment [10] and in experiment [6] was above 100 µM throughout. For the same compound, the TGI in experiment [7], in experiment [8] and in experiment [9] was above 100 µM in each case.

Take `CCCNc1nc2ccccc2c2c1S(=O)(=O)c1ccc(Cl)cc1C2=O`: the GI50 in experiment [1] was 0.0899 µM; in experiment [2], 1.11 µM; in experiment [3] it was 3.14 µM; in experiment [4], 1.54 µM; in experiment [5] it was 0.425 µM; in [10] it was 1.51 µM. Moreover, the figures for the GI50 in experiment [6], in experiment [8] and in [9] were 1.35 µM, 3.06 µM and 0.79 µM, respectively. Besides, the TGI in [1] is 0.475 µM; in experiment [2] it was above 50 µM; in [3] it was above 50 µM; in experiment [4] it was above 50 µM; in experiment [5] it was above 50 µM; in experiment [10] it was above 50 µM. Moreover, the TGI in experiment [6] is above 50 µM; in [8] it was 41.1 µM; in experiment [9] it was above 50 µM.
